From US8829193B2, “PIM kinase inhibitors and methods of their use” (Novartis AG, priority 2008, dated 2014)

Key:
[1] = biological target: Pim1 kinase (Homo sapiens (Human), UniProt P11309); experiment: Pim1 ATP depletion assay; type: biochemical; conditions: 20 μM ATP, 40 μM BAD peptide, 2.5 nM PIM1
Protocol: The activity of PIM1 is measured using a luciferase-luciferin based ATP detection reagent to quantify ATP depletion resulting from kinase-catalyzed phosphoryl transfer to a peptide substrate. Compounds to be tested are dissolved in 100% DMSO and directly distributed into white 384-well plates at 0.5 μl per well. […] After 15 minutes, 10 μl of 40 μM ATP in assay buffer is added. Final assay concentrations are 2.5 nM PIM1, 20 μM ATP, 40 μM BAD peptide and 2.5% DMSO. The reaction is performed until approximately 50% of the ATP is depleted, then stopped with the addition of 20 μl KinaseGlo Plus (Promega Corporation) solution. The stopped reaction is incubated for 10 minutes and the remaining ATP detected via luminescence on the Victor2 (Perkin Elmer).

[2] = biological target: Pim3 kinase (Homo sapiens (Human), UniProt Q86V86); experiment: Pim3 ATP depletion assay; type: biochemical; conditions: 40 μM ATP, 100 μM BAD peptide
Protocol: (§1) The activity of PIM3 is measured using a luciferase-luciferin based ATP detection reagent to quantify ATP depletion resulting from kinase-catalyzed phosphoryl transfer to a peptide substrate. Compounds to be tested are dissolved in 100% DMSO and directly distributed into white 384-well plates at 0.5 piper well. […] After 15 minutes, 10 μl of 80 μM ATP in assay buffer is added. Final assay concentrations are 5 nM PIM1, 40 μM ATP, 100 μM BAD peptide and 2.5% DMSO. The reaction is performed until approximately 50% of the ATP is depleted, then stopped by the addition of 20 μl KinaseGlo Plus (Promega Corporation) solution. The stopped reaction is incubated for 10 minutes and the remaining ATP detected via luminescence on the Victor2 (Perkin Elmer).

[3] = biological target: Pim2 kinase (Homo sapiens (Human), UniProt Q9P1W9); experiment: Pim2 ATP depletion assay; type: biochemical; conditions: 4 μM ATP, 10 μM BAD peptide, 5 nM PIM2
Protocol: as §1, with “of PIM2” for “of PIM3”, “of 8” for “of 80”, “nM PIM2, 4” for “nM PIM1, 40”, “ATP, 10” for “ATP, 100”, “stopped with” for “stopped by”

[4] = system: KMS11 (human myeloma cell line); experiment: Cell Proliferation Assay; type: cell-based; conditions: KMS-11, 72 h, KMS11 cells, 3 days, Cell Titer-Glow
Protocol: KMS11 (human myeloma cell line), were cultured in IMDM supplemented with 10% FBS, sodium pyruvate and antibiotics. Cells were plated in the same medium at a density of 2000 cells per well into 96 well tissue culture plates, with outside wells vacant, on the day of assay. MM1.s (human myeloma cell line), were cultured in RPMI1640 supplemented with 10% FBS, sodium pyruvate and antibiotics. Cells were plated in the same medium at a density of 5000 cells per well into 96 well tissue culture plates, with outside wells vacant, on the day of assay.
Test compounds supplied in DMSO were diluted into DMSO at 500 times the desired final concentrations before dilution into culture media to 2 times final concentrations. Equal volumes of 2× compounds were added to the cells in 96 well plates and incubated at 37° C. for 3 days.
After 3 days plates were equilibrated to room temperature and equal volume of Cell Titer-Glow Reagent (Promega) was added to the culture wells. The plates were agitated briefly and luminescent signal was measured with luminometer.
Using the procedures for Cell Proliferation Assay described above, the EC50 concentration of compounds of the previous examples were determined in KMS11 cells as shown in the following table.

Chain of Pim1 kinase (P11309 whole entry): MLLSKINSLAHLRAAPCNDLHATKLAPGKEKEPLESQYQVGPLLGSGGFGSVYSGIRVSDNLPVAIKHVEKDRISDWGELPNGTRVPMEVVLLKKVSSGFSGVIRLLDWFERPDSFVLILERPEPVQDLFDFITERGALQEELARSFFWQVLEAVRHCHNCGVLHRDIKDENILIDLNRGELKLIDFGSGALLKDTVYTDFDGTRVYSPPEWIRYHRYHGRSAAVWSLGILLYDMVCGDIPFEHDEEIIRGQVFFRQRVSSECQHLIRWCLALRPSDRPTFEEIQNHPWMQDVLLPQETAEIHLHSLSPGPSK
Chain of Pim2 kinase (Q9P1W9 whole entry): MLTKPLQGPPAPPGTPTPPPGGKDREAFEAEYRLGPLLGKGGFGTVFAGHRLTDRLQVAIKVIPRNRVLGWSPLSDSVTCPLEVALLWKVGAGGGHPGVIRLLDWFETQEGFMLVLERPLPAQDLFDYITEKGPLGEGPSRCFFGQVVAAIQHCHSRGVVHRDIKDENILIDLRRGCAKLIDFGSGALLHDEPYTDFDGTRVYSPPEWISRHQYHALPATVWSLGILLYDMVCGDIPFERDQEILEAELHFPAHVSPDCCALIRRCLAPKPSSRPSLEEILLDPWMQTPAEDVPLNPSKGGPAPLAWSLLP

Row | Structure (SMILES) | IC50 [1] [nM] | IC50 [2] [nM] | IC50 [3] [nM] | EC50 [4] [nM]
1 | Nc1sc(-c2c(F)cccc2F)nc1C(=O)Nc1cnccc1[C@@H]1CC[C@H](O)[C@H](N)C1 (stereo in doubt) [Example 38, 5-amino-N-(4-(3-amino-4-hydroxycyclohexyl)pyridin-3-yl)-2-(2,6-difluorophenyl)thiazole-4-carboxamide] | 1 | 3 | 4 | 1890
2 | N[C@H]1CCCN(c2ccncc2NC(=O)c2csc(-c3c(F)cccc3F)n2)C1 [Example 1, (S)-N-(4-(3-aminopiperidin-1-yl)pyridin-3-yl)-2-(2,6-difluorophenyl)thiazole-4-carboxamide] | – | – | – | 1170
3 | N[C@@H]1CN(c2ccncc2NC(=O)c2csc(-c3c(F)cccc3F)n2)CC[C@H]1O [Example 2, N-(4-((3R,4R)-3-amino-4-hydroxypiperidin-1-yl)pyridin-3-yl)-2-(2,6-difluorophenyl)thiazole-4-carboxamide] | 2 | 4 | 11 | 1570
4 | N[C@@H]1CN(c2ccncc2NC(=O)c2csc(-c3c(F)cccc3F)n2)CC[C@@H]1O [Example 6, N-(4-((3R,4S)-3-amino-4-hydroxypiperidin-1-yl)pyridin-3-yl)-2-(2,6-difluorophenyl)thiazole-4-carboxamide] | 1 | 1 | 3 | 410
5 | CO[C@@H]1C[C@H](N)CN(c2ccncc2NC(=O)c2csc(-c3c(F)cccc3F)n2)C1 [Example 8, N-(4-((3S,5R)-3-amino-5-methoxypiperidin-1-yl)pyridin-3-yl)-2-(2,6-difluorophenyl)thiazole-4-carboxamide] | 21 | 35 | 46 | 4700
6 | N[C@H]1C[C@@H](F)CN(c2ccncc2NC(=O)c2csc(-c3c(F)cccc3F)n2)C1 [Example 11, N-(4-((3S,5R)-3-amino-5-fluoropiperidin-1-yl)pyridin-3-yl)-2-(2,6-difluorophenyl)thiazole-4-carboxamide] | 4 | 8 | 55 | 6100
7 | CC1CC(N)CN(c2ccncc2NC(=O)c2csc(-c3c(F)cccc3F)n2)C1 (centres unmarked) [Example 14, N-(4-(3-amino-5-methylpiperidin-1-yl)pyridin-3-yl)-2-(2,6-difluorophenyl)thiazole-4-carboxamide] | – | – | – | 830
8 | NC1CC(C(F)(F)F)CN(c2ccncc2NC(=O)c2csc(-c3c(F)cccc3F)n2)C1 (centres unmarked) [Example 15, N-(4-(3-amino-5-(trifluoromethyl)piperidin-1-yl)pyridin-3-yl)-2-(2,6-difluorophenyl)thiazole-4-carboxamide] | 1 | 4 | 3 | 310
9 | NC1CC(CF)CN(c2ccncc2NC(=O)c2csc(-c3c(F)cccc3F)n2)C1 (centres unmarked) [Example 16, N-(4-(3-amino-5-(fluoromethyl)piperidin-1-yl)pyridin-3-yl)-2-(2,6-difluorophenyl)thiazole-4-carboxamide] | 1 | 4 | 3 | 2380
10 | C[C@@H]1C[C@H](N)CN(c2ccncc2NC(=O)c2csc(-c3c(F)cccc3F)n2)C1 [Example 28, N-(4-((3S,5R)-3-amino-5-methylpiperidin-1-yl)pyridin-3-yl)-2-(2,6-difluoropheenyl)thiazole-4-carboxamide] | – | – | – | 400
11 | Nc1sc(-c2c(F)cccc2F)nc1C(=O)Nc1cnccc1N1CCC[C@H](N)C1 [Example 29, (S)-5-amino-N-(4-(3-aminopiperidin-1-yl)pyridin-3-yl)-2-(2,6-difluorophenyl)thiazole-4-carboxamide] | – | – | – | 40
12 | Nc1sc(-c2c(F)cccc2F)nc1C(=O)Nc1cnccc1[C@@H]1CCC[C@H](N)C1 [Example 33, 5-amino-N-(4-((1R,3S)-3-aminocyclohexyl)pyridin-3-yl)-2-(2,6-difluorophenyl)thiazole-4-carboxamide] | 1 | – | – | 430
13 | N[C@H]1CCC[C@@H](c2ccncc2NC(=O)c2csc(-c3c(F)cccc3F)n2)C1 [Example 34, N-(4-((1R,3S)-3-aminocyclohexyl)pyridin-3-yl)-2-(2,6-difluorophenyl)thiazole-4-carboxamide] | – | – | – | 5020
14 | C[C@@H]1CN(c2ccncc2NC(=O)c2csc(-c3c(F)cccc3F)n2)C[C@@H](N)[C@H]1O [Example 35, N-(4-((3R,4S,5R)-3-amino-4-hydroxy-5-methylpiperidin-1-yl)pyridin-3-yl)-2-(2,6-difluorophenyl)thiazole-4-carboxamide] | 9 | 9 | 125 | –
15 | C[C@@H]1C[C@H](N)C[C@H](c2ccncc2NC(=O)c2csc(C3CCCCC3)n2)C1 [Example 40, N-(4-((1R,3S,5S)-3-amino-5-methylcyclohexyl)pyridin-3-yl)-2-cyclohexylthiazole-4-carboxamide] | 41 | 109 | 97 | –
16 | C[C@H]1C[C@@H](c2ccncc2NC(=O)c2csc(C3CCCCC3)n2)C[C@@H](N)[C@@H]1O [Example 42, N-(4-((1R,3R,4R,5S)-3-amino-4-hydroxy-5-methylcyclohexyl)pyridin-3-yl)-2-cyclohexylthiazole-4-carboxamide] | 146 | 215 | 250 | –

Now from value to compound:

Row | IC50 [1] [nM] | IC50 [2] [nM] | IC50 [3] [nM] | EC50 [4] [nM] | Structure (SMILES)
17 | 5 | 15 | 46 | – | C[C@H]1C[C@@H](c2ccncc2NC(=O)c2csc(-c3c(F)cccc3F)n2)C[C@@H](N)[C@H]1O [Example 43, N-(4-((1R,3R,4S,5S)-3-amino-4-hydroxy-5-methylcyclohexyl)pyridin-3-yl)-2-(2,6-difluorophenyl)thiazole-4-carboxamide (and enantiomer)]
18 | 1 | 3 | – | 920 | C[C@@H]1C[C@H](N)C[C@H](c2ccncc2NC(=O)c2csc(-c3c(F)cccc3F)n2)C1 [Example 45, N-(4-((1R,3S,5S)-3-amino-5-methylcyclohexyl)pyridin-3-yl)-2-(2,6-difluorophenyl)thhiazole-4-carboxamide]
19 | 1 | 3 | 16 | – | CC1(C)C[C@H](N)C[C@H](c2ccncc2NC(=O)c2csc(-c3c(F)cccc3F)n2)C1 [Example 46, N-(4-((1R,5R)-5-amino-3,3-dimethylcyclohexyl)pyridin-3-yl)-2-(2,6-difluorophenyl)thiazole-4-carboxamide]
20 | 2 | 2.3 | 17.7 | – | N[C@H]1CCCN(c2ccncc2NC(=O)c2csc(-c3ccccc3)n2)C1 [Example 48, (S)-N-(4-(3-aminopiperidin-1-yl)pyridin-3-yl)-2-phenylthiazole-4-carboxamide]
21 | 1.9 | 4.2 | 9.9 | – | N[C@H]1CCCN(c2ccncc2NC(=O)c2csc(-c3ccccc3F)n2)C1 [Example 49, (S)-N-(4-(3-aminopiperidin-1-yl)pyridin-3-yl)-2-(2-fluorophenyl)thiazole-4-carboxamide]
22 | 3.2 | 8.3 | 83.8 | – | CC(C)NC(=O)c1ccc(F)c(-c2nc(C(=O)Nc3cnccc3N3CCC[C@H](N)C3)cs2)c1 [Example 50, (S)-N-(4-(3-aminopiperidin-1-yl)pyridin-3-yl)-2-(2-fluoro-5-(isopropylcarbamoyl)phenyl)thiazole-4-carboxamide]
23 | 1 | 3 | 20 | – | CC(C)Oc1ccc(F)c(-c2nc(C(=O)Nc3cnccc3[C@@H]3C[C@H](C)C[C@H](N)C3)cs2)c1F [Example 53]
